Among the data in PubChem BioAssay (NCI) are GI50 and TGI values, retold here.

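Five concentrations, 48 hours, 96-well plates. GI50 marks 50% less growth. Definition used: TGI = concentration required for complete inhibition of growth.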

Some test systems named below: OVCAR-4 ovarian; NCI/ADR-RES ovarian; PC-3 prostate; HT29 colon; TK-10 renal; UACC-257 melanoma; NCI-H460 lung; U251 CNS; SN12C renal; SNB-19 CNS.
What all share (assay): inhibition of tumour cell growth, NCI panel, 48 h

With `Cc1ccc(-c2nc([P+](c3ccccc3)(c3ccccc3)c3ccccc3)c(S(=O)(=O)c3ccc(C)cc3)o2)cc1`, the GI50 with OVCAR-4 ovarian was 1.4 µM; with NCI/ADR-RES ovarian, 2.94 µM; with PC-3 prostate, 1.43 µM; with HT29 colon, 1.7 µM; with TK-10 renal it was 1.73 µM; in the assay with UACC-257 melanoma, 1.7 µM. Besides, the GI50 is 1.64 µM in the assay with NCI-H460 lung, 1.14 µM with U251 CNS, 1.06 µM with SN12C renal and 1.64 µM in the assay with SNB-19 CNS. The TGI is 2.83 µM in the assay on OVCAR-4 ovarian; 18 µM in the assay with NCI/ADR-RES ovarian; 3.28 µM with PC-3 prostate; 4.17 µM in the assay with HT29 colon; 3.27 µM in the assay with TK-10 renal; 3.7 µM with UACC-257 melanoma. Besides, the TGI in the assay with NCI-H460 lung was 3.43 µM; with U251 CNS, 2.43 µM; with SN12C renal, 2.34 µM; with SNB-19 CNS, 3.3 µM.
For `c1ccc(CCc2cccnc2)nc1`, the TGI with OVCAR-4 ovarian, in the assay with NCI/ADR-RES ovarian, with PC-3 prostate, in the assay on HT29 colon, in the assay with TK-10 renal and in the assay on UACC-257 melanoma was greater than 100 µM each time. In addition, the TGI in the assay with NCI-H460 lung, in the assay on U251 CNS, with SN12C renal and in the assay with SNB-19 CNS was greater than 100 µM in each case.
In the case of `CCN(CC)CCCCCCNc1cc(OC)cc2cccnc12`, the GI50 in the assay with OVCAR-4 ovarian is 2.5 µM; in the assay with NCI/ADR-RES ovarian it was 7.16 µM; in the assay with PC-3 prostate, 2.06 µM; in the assay on HT29 colon, 1.82 µM; in the assay on TK-10 renal, 16.1 µM; in the assay with UACC-257 melanoma, 20.2 µM. The GI50 in the assay with NCI-H460 lung was 2 µM; in the assay with U251 CNS it was 2.38 µM; in the assay on SN12C renal, 2.29 µM; in the assay on SNB-19 CNS it was 8.17 µM. The TGI came out at 9.55 µM with OVCAR-4 ovarian; 27.3 µM with NCI/ADR-RES ovarian; 4.1 µM in the assay on PC-3 prostate; 3.43 µM with HT29 colon; 30.8 µM with TK-10 renal; 36.8 µM with UACC-257 melanoma. Also, the TGI with NCI-H460 lung amounted to 3.79 µM; in the assay on U251 CNS, 5.2 µM; in the assay with SN12C renal, 5 µM; in the assay with SNB-19 CNS, 30.8 µM.
With `O=C(O)CCC(=O)c1ccc2sc3ccccc3c2c1`, the TGI with OVCAR-4 ovarian, with NCI/ADR-RES ovarian, in the assay with PC-3 prostate, in the assay on HT29 colon, in the assay on TK-10 renal and with UACC-257 melanoma was greater than 100 µM throughout. The TGI with NCI-H460 lung, in the assay on U251 CNS, in the assay with SN12C renal and in the assay on SNB-19 CNS was greater than 100 µM each time.
With `OC(C#Cc1ccccc1)(c1ccccc1)c1ccccc1`, the TGI is greater than 100 µM in the assay on OVCAR-4 ovarian; greater than 100 µM in the assay with NCI/ADR-RES ovarian; greater than 100 µM in the assay on PC-3 prostate; 78.4 µM in the assay with HT29 colon; 77.4 µM in the assay with TK-10 renal; greater than 100 µM with UACC-257 melanoma. Also, the TGI in the assay on NCI-H460 lung is 50.6 µM; with U251 CNS, 83.4 µM; in the assay with SN12C renal, greater than 100 µM; in the assay on SNB-19 CNS it was greater than 100 µM.
As to `CCCCCCNC(=O)Oc1ccc(/C(=C(\C)c2ccc(Cl)cc2)c2ccc(OCCN3CCCCC3)cc2)cc1`, the GI50 is 2.35 µM in the assay with OVCAR-4 ovarian; 4.15 µM in the assay with NCI/ADR-RES ovarian; 2.23 µM with PC-3 prostate; 1.11 µM in the assay on HT29 colon; 5.79 µM in the assay with TK-10 renal; 4.13 µM in the assay with UACC-257 melanoma. Further, the GI50 with NCI-H460 lung was 1.57 µM; in the assay with U251 CNS, 3.52 µM; in the assay on SN12C renal, 4.22 µM; in the assay with SNB-19 CNS, 6.37 µM. The TGI with OVCAR-4 ovarian is 7.73 µM; with NCI/ADR-RES ovarian it was 8.77 µM; with PC-3 prostate, 14.1 µM; in the assay with HT29 colon, 4.02 µM; in the assay with TK-10 renal, 12.2 µM; in the assay with UACC-257 melanoma, 9.98 µM. For the same compound, the TGI in the assay with NCI-H460 lung came to 5.46 µM; with U251 CNS, 7.92 µM; in the assay with SN12C renal, 8.68 µM; in the assay with SNB-19 CNS, 28.9 µM.
Regarding `CCC1(O)C(=O)OCc2c1cc1n(c2=O)Cc2cc3c(NC(=O)CN)cccc3nc2-1` (stereo not drawn), the GI50 is 7.53 µM with OVCAR-4 ovarian; 0.296 µM in the assay with NCI/ADR-RES ovarian; 2.72 µM in the assay with PC-3 prostate; 38.7 µM with TK-10 renal; 2.09 µM in the assay with UACC-257 melanoma; 0.122 µM in the assay with NCI-H460 lung. The GI50 in the assay with U251 CNS was 0.16 µM; with SN12C renal it was 0.102 µM; with SNB-19 CNS, 0.492 µM. The TGI in the assay on OVCAR-4 ovarian is 36.7 µM; in the assay on NCI/ADR-RES ovarian, 1.51 µM; in the assay with PC-3 prostate, greater than 100 µM; in the assay with HT29 colon, greater than 79.3 µM; in the assay with TK-10 renal, greater than 97.6 µM; in the assay on UACC-257 melanoma, 24.3 µM. Besides, the TGI is 3.88 µM with NCI-H460 lung, 12.1 µM in the assay on U251 CNS, 10.1 µM in the assay on SN12C renal and greater than 100 µM in the assay with SNB-19 CNS.
As to `Oc1cccc2ccc(N/N=C/c3cc(CN4CCOCC4)c(O)c4ncccc34)nc12`, the GI50 was 0.0339 µM in the assay with OVCAR-4 ovarian; 0.0233 µM in the assay on NCI/ADR-RES ovarian; 0.0346 µM in the assay with PC-3 prostate; 0.324 µM in the assay on HT29 colon; 0.0497 µM with TK-10 renal; 0.0368 µM with UACC-257 melanoma. In addition, the GI50 in the assay with NCI-H460 lung is less than 0.0104 µM; in the assay with U251 CNS it was less than 0.0154 µM; with SN12C renal it was 0.0348 µM; with SNB-19 CNS, 0.0169 µM. In addition, the TGI in the assay on OVCAR-4 ovarian stood at 2.14 µM; in the assay with NCI/ADR-RES ovarian, 1.63 µM; with PC-3 prostate, 4.92 µM; with HT29 colon, 5.92 µM; in the assay with TK-10 renal, 13.5 µM; in the assay on UACC-257 melanoma it was 0.44 µM. The TGI with NCI-H460 lung came to 1.2 µM; in the assay on U251 CNS it was 3.74 µM; with SN12C renal it was 7.82 µM; in the assay with SNB-19 CNS, 12.6 µM.
For the compound `COc1ccc(/C=C(\C#N)n2nnc3c(F)cccc32)cc1`, the GI50 is greater than 28.2 µM in the assay on OVCAR-4 ovarian; 0.181 µM in the assay on NCI/ADR-RES ovarian; 0.381 µM in the assay on PC-3 prostate; 0.286 µM with HT29 colon; 2.73 µM with TK-10 renal; 1.16 µM in the assay on UACC-257 melanoma. The GI50 in the assay on NCI-H460 lung is 0.413 µM; with U251 CNS, 0.41 µM; with SN12C renal, 0.585 µM; in the assay on SNB-19 CNS, 0.412 µM. In addition, the TGI in the assay with OVCAR-4 ovarian was greater than 100 µM; in the assay with NCI/ADR-RES ovarian, 4.52 µM; in the assay on PC-3 prostate it was greater than 100 µM; with TK-10 renal it was 29 µM; in the assay with UACC-257 melanoma, greater than 100 µM; in the assay with NCI-H460 lung, greater than 100 µM. For the same compound, the TGI in the assay on U251 CNS is 17.7 µM; with SN12C renal, greater than 100 µM; in the assay on SNB-19 CNS, 18.2 µM.
For the compound `Cc1cc(C#Cc2ccc(C(C)(C)C)cc2)ccc1-n1c(/C=C/c2ccc(O)cc2O)nc2ccccc2c1=O`, the GI50 with OVCAR-4 ovarian was 3.15 µM; in the assay on NCI/ADR-RES ovarian, 3.17 µM; with PC-3 prostate, 3.67 µM; in the assay on HT29 colon, 2.08 µM; in the assay with TK-10 renal, 3.82 µM; in the assay on UACC-257 melanoma it was 6.92 µM. Besides, the GI50 was 1.82 µM with NCI-H460 lung, 2.11 µM in the assay on U251 CNS, 1.88 µM in the assay with SN12C renal and 7.9 µM with SNB-19 CNS. In addition, the TGI in the assay on OVCAR-4 ovarian worked out at 14.7 µM; in the assay with NCI/ADR-RES ovarian it was 13.4 µM; in the assay on PC-3 prostate it was 16.2 µM; in the assay with HT29 colon it was 5.27 µM; in the assay on TK-10 renal it was 12.8 µM; in the assay with UACC-257 melanoma, 20.4 µM. Further, the TGI came to 3.75 µM in the assay with NCI-H460 lung, 6.03 µM with U251 CNS, 4.13 µM in the assay with SN12C renal and 22.5 µM with SNB-19 CNS.
In the case of `CN(CCNCc1ccccn1)CCNCc1ccccn1`, the GI50 was 2.85 µM in the assay on OVCAR-4 ovarian; 3.57 µM with NCI/ADR-RES ovarian; 2.27 µM with PC-3 prostate; 2.79 µM with HT29 colon; 2.19 µM in the assay on TK-10 renal; 1.97 µM in the assay with UACC-257 melanoma. The GI50 in the assay with NCI-H460 lung is 3.16 µM; in the assay with U251 CNS, 3.48 µM; in the assay on SN12C renal, 4.33 µM; in the assay with SNB-19 CNS, 5.29 µM. Also, the TGI in the assay on OVCAR-4 ovarian was 8.99 µM; with NCI/ADR-RES ovarian, greater than 100 µM; in the assay with PC-3 prostate, 7.59 µM; in the assay on HT29 colon, 7.86 µM; in the assay on TK-10 renal, 6.94 µM; with UACC-257 melanoma, 3.85 µM. The TGI was 9.54 µM in the assay on NCI-H460 lung, 12 µM in the assay with U251 CNS, 17.2 µM in the assay on SN12C renal and 18.5 µM in the assay with SNB-19 CNS.
As for `COc1cc2c(cc1OCCCCN1CCN(C(=S)SCCC(C#N)(c3ccccc3)c3ccccc3)CC1)N=C[C@@H]1CCCN1C2=O`, the GI50 was 1.82 µM with OVCAR-4 ovarian; 3.05 µM in the assay on NCI/ADR-RES ovarian; 0.697 µM with PC-3 prostate; 1.13 µM with HT29 colon; 1.26 µM in the assay on TK-10 renal; 1.97 µM in the assay on UACC-257 melanoma. For the same compound, the GI50 was 1.25 µM in the assay on NCI-H460 lung, 1.11 µM in the assay on U251 CNS, 1.16 µM with SN12C renal and 1.67 µM with SNB-19 CNS. For the same compound, the TGI with OVCAR-4 ovarian is 17.7 µM; in the assay with NCI/ADR-RES ovarian, greater than 100 µM; with PC-3 prostate, 2.41 µM; in the assay with HT29 colon, greater than 100 µM; with TK-10 renal, 3.04 µM; with UACC-257 melanoma, 4.17 µM. Besides, the TGI in the assay with NCI-H460 lung was determined as 4.02 µM; in the assay with U251 CNS it was 2.66 µM; in the assay on SN12C renal, 4.54 µM; with SNB-19 CNS, 3.98 µM.
